According to the kinase profiling compilation of Christmann-Franck et al. (2016):

Assays:
Assay in all cases: KINOMEscan competition binding
Settings in all cases: compound 2.0 µM
[1] = target: MYLK3 (human) (UniProt Q32MK0)
[2] = target: CDK8 (human) (UniProt P49336)
[3] = target: PIK3CD (human) (UniProt O00329)
[4] = target: STK35 (human) (UniProt Q8TDR2)
[5] = target: PIP4K2B (human) (UniProt P78356)
[6] = target: PRKCH (human) (UniProt P24723)
[7] = target: MAPK3 (human) (UniProt P27361)
[8] = target: RPS6KA5 KD1 (human) (UniProt O75582)
[9] = target: MAP3K1 (human) (UniProt Q13233)
[10] = target: RIOK3 (human) (UniProt O14730)
[11] = target: PLK4 (human) (UniProt O00444)
[12] = target: CDKL5 (human) (UniProt O76039)
[13] = target: PKN1 (human) (UniProt Q16512)
[14] = target: MAST1 (human) (UniProt Q9Y2H9)
[15] = target: PIM3 (human) (UniProt Q86V86)
[16] = test system: ABL1 (human), P00519 [Y253F]
[17] = target: MST1R (human) (UniProt Q04912)
[18] = test system: RET (human), P07949 [V804M]
[19] = target: MAP2K5 (human) (UniProt Q13163)
[20] = target: CDK13 (human) (UniProt Q14004)
[21] = target: PRKAA2 (human) (UniProt P54646)
[22] = target: MAPK13 (human) (UniProt O15264)
[23] = target: PRKG1 (human) (UniProt Q13976)
[24] = target: NEK2 (human) (UniProt P51955)
[25] = target: PAK1 (human) (UniProt Q13153)
[26] = target: TYRO3 (human) (UniProt Q06418)
[27] = target: SGK110 (human) (UniProt P0C264)
[28] = test system: PIK3CA (human), P42336 [M1043I]
[29] = target: FER (human) (UniProt P16591)
[30] = target: BMP2K (human) (UniProt Q9NSY1)
[31] = target: MARK2 (human) (UniProt Q7KZI7)
[32] = target: ACVR1B (human) (UniProt P36896)
[33] = target: BRSK1 (human) (UniProt Q8TDC3)
[34] = target: ERBB4 (human) (UniProt Q15303)
[35] = target: PKN2 (human) (UniProt Q16513)
[36] = target: BRSK2 (human) (UniProt Q8IWQ3)
[37] = target: FLT3 (human) (UniProt P36888)
[38] = target: CDKL1 (human) (UniProt Q00532)
[39] = target: FGFR2 (human) (UniProt P21802)
[40] = target: ADCK3 (human) (UniProt Q8NI60)
[41] = target: PIK3CA (human) (UniProt P42336)
[42] = target: RPS6KA1 KD2 (human) (UniProt Q15418)
[43] = target: PIK3CG (human) (UniProt P48736)
Chain of PIK3CG (human) (P48736 whole entry, looked up): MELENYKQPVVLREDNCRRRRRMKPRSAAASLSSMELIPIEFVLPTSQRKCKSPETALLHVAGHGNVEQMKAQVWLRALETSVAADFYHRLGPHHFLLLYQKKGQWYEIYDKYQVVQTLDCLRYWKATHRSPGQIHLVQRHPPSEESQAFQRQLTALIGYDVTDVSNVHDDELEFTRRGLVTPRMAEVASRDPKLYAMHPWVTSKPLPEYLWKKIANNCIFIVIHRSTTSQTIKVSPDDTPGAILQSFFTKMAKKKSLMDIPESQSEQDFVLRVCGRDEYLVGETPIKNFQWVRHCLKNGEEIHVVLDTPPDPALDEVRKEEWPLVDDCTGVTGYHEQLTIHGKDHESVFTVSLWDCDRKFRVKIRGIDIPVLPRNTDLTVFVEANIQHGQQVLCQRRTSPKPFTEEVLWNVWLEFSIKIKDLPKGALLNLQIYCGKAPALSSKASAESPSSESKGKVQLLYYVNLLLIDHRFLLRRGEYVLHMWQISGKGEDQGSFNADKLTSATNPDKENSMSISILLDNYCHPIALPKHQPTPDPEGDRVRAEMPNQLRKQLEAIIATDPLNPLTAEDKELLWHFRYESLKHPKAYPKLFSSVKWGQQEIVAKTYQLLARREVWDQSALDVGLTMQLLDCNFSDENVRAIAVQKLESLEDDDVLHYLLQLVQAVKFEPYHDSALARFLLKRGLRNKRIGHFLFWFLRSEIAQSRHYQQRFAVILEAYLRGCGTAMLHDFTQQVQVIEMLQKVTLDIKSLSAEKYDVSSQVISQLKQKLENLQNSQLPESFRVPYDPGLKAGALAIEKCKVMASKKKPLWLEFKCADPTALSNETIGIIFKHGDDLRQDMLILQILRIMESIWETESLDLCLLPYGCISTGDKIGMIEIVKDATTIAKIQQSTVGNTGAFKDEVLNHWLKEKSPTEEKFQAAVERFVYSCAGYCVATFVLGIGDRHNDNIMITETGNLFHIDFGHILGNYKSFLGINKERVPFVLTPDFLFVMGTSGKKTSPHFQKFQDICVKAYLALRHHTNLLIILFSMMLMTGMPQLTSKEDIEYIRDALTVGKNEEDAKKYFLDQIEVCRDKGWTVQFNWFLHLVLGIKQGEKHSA

Chain of PAK1 (human) (Q13153 whole entry, looked up): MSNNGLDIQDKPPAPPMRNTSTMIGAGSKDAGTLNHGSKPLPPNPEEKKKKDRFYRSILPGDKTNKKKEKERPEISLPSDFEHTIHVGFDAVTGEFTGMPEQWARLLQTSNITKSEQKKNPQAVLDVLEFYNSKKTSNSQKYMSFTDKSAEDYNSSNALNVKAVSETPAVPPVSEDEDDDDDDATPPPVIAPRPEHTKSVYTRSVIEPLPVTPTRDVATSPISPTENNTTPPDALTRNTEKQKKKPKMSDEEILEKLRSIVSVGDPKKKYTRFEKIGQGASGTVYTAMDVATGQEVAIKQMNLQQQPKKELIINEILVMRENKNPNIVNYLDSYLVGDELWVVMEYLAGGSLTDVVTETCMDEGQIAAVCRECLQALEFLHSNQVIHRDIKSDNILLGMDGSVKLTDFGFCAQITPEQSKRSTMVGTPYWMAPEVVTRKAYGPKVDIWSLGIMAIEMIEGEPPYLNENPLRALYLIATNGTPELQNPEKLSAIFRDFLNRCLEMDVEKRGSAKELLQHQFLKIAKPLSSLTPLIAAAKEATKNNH
Chain of FLT3 (human) (P36888 whole entry, looked up): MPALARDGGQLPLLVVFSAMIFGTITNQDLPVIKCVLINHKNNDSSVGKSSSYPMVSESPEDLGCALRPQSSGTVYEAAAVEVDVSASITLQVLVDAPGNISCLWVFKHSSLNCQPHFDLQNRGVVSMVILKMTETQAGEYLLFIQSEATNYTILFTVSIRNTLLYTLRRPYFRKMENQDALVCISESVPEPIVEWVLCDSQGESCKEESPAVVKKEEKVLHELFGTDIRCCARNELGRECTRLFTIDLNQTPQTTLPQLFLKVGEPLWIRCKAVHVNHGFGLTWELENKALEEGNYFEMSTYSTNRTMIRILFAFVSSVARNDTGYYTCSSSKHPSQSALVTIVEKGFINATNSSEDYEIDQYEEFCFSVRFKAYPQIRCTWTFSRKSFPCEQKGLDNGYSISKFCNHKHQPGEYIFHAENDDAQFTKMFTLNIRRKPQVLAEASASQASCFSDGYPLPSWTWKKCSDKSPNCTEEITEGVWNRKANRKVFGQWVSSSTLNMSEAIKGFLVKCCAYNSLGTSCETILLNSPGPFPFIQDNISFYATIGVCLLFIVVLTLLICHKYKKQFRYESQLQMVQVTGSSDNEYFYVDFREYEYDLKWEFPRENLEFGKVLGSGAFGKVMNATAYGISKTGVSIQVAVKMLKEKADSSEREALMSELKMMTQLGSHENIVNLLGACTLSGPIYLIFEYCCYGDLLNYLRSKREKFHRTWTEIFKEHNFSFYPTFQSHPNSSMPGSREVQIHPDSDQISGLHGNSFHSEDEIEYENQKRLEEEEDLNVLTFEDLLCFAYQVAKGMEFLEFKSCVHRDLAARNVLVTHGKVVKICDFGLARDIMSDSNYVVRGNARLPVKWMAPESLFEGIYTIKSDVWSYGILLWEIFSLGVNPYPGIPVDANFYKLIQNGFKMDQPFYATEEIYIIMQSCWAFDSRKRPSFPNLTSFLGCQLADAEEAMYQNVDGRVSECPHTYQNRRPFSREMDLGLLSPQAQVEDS
Chain of TYRO3 (human) (Q06418 whole entry, looked up): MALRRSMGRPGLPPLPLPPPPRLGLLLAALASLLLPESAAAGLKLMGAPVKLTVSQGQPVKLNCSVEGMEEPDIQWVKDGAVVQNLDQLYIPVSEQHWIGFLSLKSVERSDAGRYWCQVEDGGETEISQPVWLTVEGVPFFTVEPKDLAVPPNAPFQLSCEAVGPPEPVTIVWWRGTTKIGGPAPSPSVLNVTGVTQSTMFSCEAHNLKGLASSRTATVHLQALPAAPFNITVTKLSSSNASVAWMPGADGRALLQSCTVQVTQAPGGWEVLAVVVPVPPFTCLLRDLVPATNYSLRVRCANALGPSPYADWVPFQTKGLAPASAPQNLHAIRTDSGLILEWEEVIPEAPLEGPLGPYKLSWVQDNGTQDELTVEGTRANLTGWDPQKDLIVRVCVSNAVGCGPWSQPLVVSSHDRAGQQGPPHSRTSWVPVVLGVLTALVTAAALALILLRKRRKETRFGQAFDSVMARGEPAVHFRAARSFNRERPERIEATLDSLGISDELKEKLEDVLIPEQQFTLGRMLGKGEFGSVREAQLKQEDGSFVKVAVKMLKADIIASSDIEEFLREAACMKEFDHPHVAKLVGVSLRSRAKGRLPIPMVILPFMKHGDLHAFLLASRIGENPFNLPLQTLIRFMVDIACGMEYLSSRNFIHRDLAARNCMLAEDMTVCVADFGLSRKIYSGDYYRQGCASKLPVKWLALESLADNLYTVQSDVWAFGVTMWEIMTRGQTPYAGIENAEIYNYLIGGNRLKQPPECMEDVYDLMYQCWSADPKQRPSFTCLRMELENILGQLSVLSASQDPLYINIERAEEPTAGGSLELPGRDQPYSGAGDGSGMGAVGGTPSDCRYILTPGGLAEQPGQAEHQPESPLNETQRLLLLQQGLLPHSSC
Chain of MYLK3 (human) (Q32MK0 whole entry, looked up): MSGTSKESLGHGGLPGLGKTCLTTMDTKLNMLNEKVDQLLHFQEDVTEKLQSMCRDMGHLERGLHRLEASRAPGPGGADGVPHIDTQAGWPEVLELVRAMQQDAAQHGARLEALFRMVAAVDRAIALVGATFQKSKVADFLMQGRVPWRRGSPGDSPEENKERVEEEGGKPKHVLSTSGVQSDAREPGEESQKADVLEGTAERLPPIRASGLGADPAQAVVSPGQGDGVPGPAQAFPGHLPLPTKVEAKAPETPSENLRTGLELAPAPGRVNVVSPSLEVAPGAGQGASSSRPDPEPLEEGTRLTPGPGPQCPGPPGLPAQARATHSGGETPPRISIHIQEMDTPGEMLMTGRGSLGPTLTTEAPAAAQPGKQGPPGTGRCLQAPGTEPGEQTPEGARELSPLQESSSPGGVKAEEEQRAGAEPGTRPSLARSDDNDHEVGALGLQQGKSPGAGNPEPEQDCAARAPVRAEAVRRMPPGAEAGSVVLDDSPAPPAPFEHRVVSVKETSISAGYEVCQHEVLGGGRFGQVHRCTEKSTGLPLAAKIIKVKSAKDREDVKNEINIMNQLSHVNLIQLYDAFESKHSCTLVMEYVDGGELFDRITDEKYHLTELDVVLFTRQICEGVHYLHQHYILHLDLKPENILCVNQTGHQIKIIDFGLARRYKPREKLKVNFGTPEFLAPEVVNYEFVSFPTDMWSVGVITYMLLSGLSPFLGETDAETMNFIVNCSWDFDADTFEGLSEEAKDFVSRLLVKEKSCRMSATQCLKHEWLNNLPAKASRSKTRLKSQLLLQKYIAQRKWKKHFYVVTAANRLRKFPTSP
Chain of PRKAA2 (human) (P54646 whole entry, looked up): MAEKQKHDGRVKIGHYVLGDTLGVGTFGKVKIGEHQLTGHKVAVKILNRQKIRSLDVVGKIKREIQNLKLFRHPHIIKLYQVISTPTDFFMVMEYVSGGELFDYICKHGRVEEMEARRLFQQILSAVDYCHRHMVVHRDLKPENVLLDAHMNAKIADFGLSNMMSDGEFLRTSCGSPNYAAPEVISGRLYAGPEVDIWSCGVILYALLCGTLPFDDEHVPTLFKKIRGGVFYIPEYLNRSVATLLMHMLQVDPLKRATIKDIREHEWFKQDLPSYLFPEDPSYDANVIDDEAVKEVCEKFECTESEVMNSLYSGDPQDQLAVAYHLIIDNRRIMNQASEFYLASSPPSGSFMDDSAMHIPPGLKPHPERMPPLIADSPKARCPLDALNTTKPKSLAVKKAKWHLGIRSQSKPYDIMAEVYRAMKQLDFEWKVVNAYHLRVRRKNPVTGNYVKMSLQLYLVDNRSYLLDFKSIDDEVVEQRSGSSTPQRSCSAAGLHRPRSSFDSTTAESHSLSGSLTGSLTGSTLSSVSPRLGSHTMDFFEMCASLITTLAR

N#Cc1ccc2ncnc(NCCc3ccc4ccccc4c3)c2c1
kinase still bound, per cent of control [1]: 79%
kinase still bound, per cent of control [2]: 8.7%
kinase still bound, per cent of control [3]: 100%
kinase still bound, per cent of control [4]: 100%
kinase still bound, per cent of control [5]: 100%
kinase still bound, per cent of control [6]: 100%
kinase still bound, per cent of control [7]: 95%
kinase still bound, per cent of control [8]: 100%
kinase still bound, per cent of control [9]: 92%
kinase still bound, per cent of control [10]: 100%
kinase still bound, per cent of control [11]: 100%
kinase still bound, per cent of control [12]: 100%
kinase still bound, per cent of control [13]: 100%
kinase still bound, per cent of control [14]: 84%
kinase still bound, per cent of control [15]: 100%
kinase still bound, per cent of control [16]: 100%
kinase still bound, per cent of control [17]: 100%
kinase still bound, per cent of control [18]: 100%
kinase still bound, per cent of control [19]: 85%
kinase still bound, per cent of control [20]: 100%
kinase still bound, per cent of control [21]: 80%
kinase still bound, per cent of control [22]: 100%
kinase still bound, per cent of control [23]: 85%
kinase still bound, per cent of control [24]: 100%
kinase still bound, per cent of control [25]: 82%
kinase still bound, per cent of control [26]: 87%
kinase still bound, per cent of control [27]: 79%
kinase still bound, per cent of control [28]: 93%
kinase still bound, per cent of control [29]: 100%
kinase still bound, per cent of control [30]: 68%
kinase still bound, per cent of control [31]: 94%
kinase still bound, per cent of control [32]: 100%
kinase still bound, per cent of control [33]: 100%
kinase still bound, per cent of control [34]: 98%
kinase still bound, per cent of control [35]: 100%
kinase still bound, per cent of control [36]: 100%
kinase still bound, per cent of control [37]: 79%
kinase still bound, per cent of control [38]: 100%
kinase still bound, per cent of control [39]: 90%
kinase still bound, per cent of control [40]: 100%
kinase still bound, per cent of control [41]: 78%
kinase still bound, per cent of control [42]: 88%
kinase still bound, per cent of control [43]: 68%
